Data from paper PMC6222997, “Cloning, purification, and characterization of an organic solvent-tolerant chitinase, MtCh509, from Microbulbifer thermotolerans DAU221” (Biotechnology for Biofuels, 2018).

Biological target: T1, MtCh509 (Microbulbifer thermotolerans, UniProt A0A143HNF3)
T1 construct: gene A3224_11035; full-length precursor 509 aa; cloned without signal peptide, N-terminal His6 (pCold I), E. coli BL21(DE3); ~60 kDa; GH18 catalytic domain plus ChtBD3
Assay: TLC of hydrolysis products
Type: biochemical
Details: 50 mM citrate buffer pH 5.0, 55 °C; 0.3 μg enzyme

T1 sequence (A0A143HNF3 entry or part of it): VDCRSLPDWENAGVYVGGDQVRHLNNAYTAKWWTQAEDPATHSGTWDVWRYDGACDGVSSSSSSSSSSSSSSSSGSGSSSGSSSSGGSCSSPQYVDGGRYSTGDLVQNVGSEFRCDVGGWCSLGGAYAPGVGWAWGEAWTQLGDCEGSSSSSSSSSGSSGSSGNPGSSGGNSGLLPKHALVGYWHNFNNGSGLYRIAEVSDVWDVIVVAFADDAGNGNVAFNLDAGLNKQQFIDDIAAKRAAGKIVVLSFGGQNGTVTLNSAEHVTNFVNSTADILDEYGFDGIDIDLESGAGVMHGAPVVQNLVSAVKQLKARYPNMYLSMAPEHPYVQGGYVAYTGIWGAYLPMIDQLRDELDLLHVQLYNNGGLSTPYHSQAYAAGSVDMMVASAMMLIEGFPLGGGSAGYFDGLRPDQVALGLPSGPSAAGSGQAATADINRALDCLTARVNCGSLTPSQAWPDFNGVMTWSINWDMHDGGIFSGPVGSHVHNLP

SMILES: CC(=O)N[C@H]1[C@H](O[C@H]2[C@H](O)[C@@H](NC(C)=O)[C@H](O[C@H]3[C@H](O)[C@@H](NC(C)=O)C(O)O[C@@H]3CO)O[C@@H]2CO)O[C@H](CO)[C@@H](O[C@@H]2O[C@H](CO)[C@@H](O[C@@H]3O[C@H](CO)[C@@H](O[C@@H]4O[C@H](CO)[C@@H](O)[C@H](O)[C@H]4NC(C)=O)[C@H](O)[C@H]3NC(C)=O)[C@H](O)[C@H]2NC(C)=O)[C@@H]1O (stereo partly shown) [NAG6]
- TLC of hydrolysis products: NAG6 (Fig. 5E) was finally degraded to NAG3 and NAG2
